Assay: cn = amount concentration of the nth substance listed, in mol/dm3
Settings: 101 kPa, Liquid; for viscosity: Capillary tube (Ostwald / Ubbelohde) method; for mass density: Vibrating tube method

O=C(O)CC(O)(CC(=O)O)C(=O)O [citric acid] + O
Settings | mass density, c1 = 0.03 [kg/m3] | mass density, c1 = 0.05 [kg/m3] | mass density, c1 = 0.07 [kg/m3] | mass density, c1 = 0.1 [kg/m3] | viscosity, c1 = 0.03 [mPa·s] | viscosity, c1 = 0.05 [mPa·s] | viscosity, c1 = 0.07 [mPa·s] | viscosity, c1 = 0.1 [mPa·s]
298.15 K | 999.5 | 1000.9 | 1002.6 | 1004.8 | 0.8766 | 0.8921 | 0.9048 | 0.9254
308.15 K | 996.3 | 997.7 | 999.3 | 1001.8 | 0.7136 | 0.7253 | 0.7595 | 0.7855
318.15 K | 992.5 | 993.8 | 995.4 | 997.9 | 0.6253 | 0.6261 | 0.6527 | 0.6766
